The values below come from patent publication US9434711B2 (Janssen Pharmaceutica, NV, priority 2007, dated 2016).

Where two headings read alike, the source gives them in different places.

The experiment has as its target canine TRPM8 (Canis lupus familiaris, UniProt Q1A7N1). In words: In Vitro Canine TRPM8 Functional Assay (Ca2+ fluorescence, icilin activation). The format is cell-based. Particulars: for inhibition at 0.5 µM: compound at 0.5 μM, read-out: % Inh @ 0.5. The method in brief:
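HEK293 cells stably expressing canine TRPM8 loaded with Calcium 3 dye; compound added and Ca2+ fluorescence monitored 5 min before icilin at a final level giving ~80% maximal response, read on FLIPR or FDSS. EC50 or IC50 from eight-point dose-response, quadruplicate wells per point.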

Setting [1] is: HEK293 cells stably expressing canine TRPM8, icilin activation, eight-point dose-response, read-out: IC50.
Setting [2] is: compound at 0.2 μM, canine TRPM8, icilin activation, read-out: % Inh @ 0.2.
[3] abbreviates: canine TRPM8, icilin activation.
Where [4] appears, read: 0.2 μM compound, HEK293 cells stably expressing canine TRPM8, icilin activation, read-out: % Inh @ 0.2.
Setting [5] is: HEK293 cells stably expressing canine TRPM8, icilin activation, average of two or more determinations, read-out: IC50.

canine TRPM8, sequence (Q1A7N1 1-1104): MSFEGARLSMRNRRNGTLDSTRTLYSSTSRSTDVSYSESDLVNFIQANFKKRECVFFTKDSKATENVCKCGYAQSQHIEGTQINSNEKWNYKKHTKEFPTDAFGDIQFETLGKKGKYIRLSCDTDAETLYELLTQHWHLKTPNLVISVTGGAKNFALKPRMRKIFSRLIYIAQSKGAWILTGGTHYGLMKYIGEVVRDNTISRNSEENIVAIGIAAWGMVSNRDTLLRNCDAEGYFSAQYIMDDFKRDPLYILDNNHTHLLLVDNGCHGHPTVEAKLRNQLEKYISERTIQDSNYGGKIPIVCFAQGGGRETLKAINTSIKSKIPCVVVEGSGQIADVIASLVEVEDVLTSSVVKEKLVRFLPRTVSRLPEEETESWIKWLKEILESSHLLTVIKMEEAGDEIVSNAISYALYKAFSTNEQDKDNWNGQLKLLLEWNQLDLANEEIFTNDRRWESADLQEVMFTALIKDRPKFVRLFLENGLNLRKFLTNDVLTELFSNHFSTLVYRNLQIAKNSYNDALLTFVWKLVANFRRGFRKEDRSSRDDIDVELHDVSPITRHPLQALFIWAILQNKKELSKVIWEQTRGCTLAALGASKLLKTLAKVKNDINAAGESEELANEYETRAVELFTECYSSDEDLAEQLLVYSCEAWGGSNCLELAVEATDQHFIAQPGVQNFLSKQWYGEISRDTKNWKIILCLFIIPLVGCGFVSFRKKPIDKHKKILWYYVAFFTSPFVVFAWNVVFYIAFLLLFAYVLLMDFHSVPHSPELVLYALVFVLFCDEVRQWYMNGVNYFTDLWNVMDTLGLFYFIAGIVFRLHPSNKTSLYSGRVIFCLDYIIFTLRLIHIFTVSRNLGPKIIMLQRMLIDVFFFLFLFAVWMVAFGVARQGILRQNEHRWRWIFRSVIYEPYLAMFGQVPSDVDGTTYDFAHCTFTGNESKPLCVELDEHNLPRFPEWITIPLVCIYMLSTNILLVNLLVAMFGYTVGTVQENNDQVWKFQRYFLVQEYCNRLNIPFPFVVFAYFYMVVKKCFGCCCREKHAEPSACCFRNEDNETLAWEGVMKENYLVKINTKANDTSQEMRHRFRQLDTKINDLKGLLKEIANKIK

For `Cc1c(N(CCCC(F)(F)F)S(=O)(=O)c2ccc(Oc3ccncc3)cc2)sc2ccccc12` [Compound 372, N-(3-Methyl-benzo[b]thiophen-2-yl)-N-(4,4,4-trifluoro-butyl)-4-(pyridin-4-yloxy)-benzenesulfonamide], under setting [1], the IC50 (as a rule, the concentration that gives 50% inhibition) stood at 27 nM. In addition, the inhibition at 0.2 µM under setting [2] came to 91%.

Regarding `O=S(=O)(c1ccccc1)N(CC1CCCCC1)c1sc2ccccc2c1Cl` [Compound 80, N-(3-Chloro-benzo[b]thiophen-2-yl)-N-(cyclohexylmethyl)-benzenesulfonamide], under setting [1], the IC50 came to 29 nM. The inhibition at 0.5 µM under setting [3] is 98%.

On to `O=S1(=O)C(N(CCC2CC2)S(=O)(=O)c2ccccc2)=C(Br)c2ccccc21` [Compound 577, N-(3-Bromo-1,1-dioxo-1H-benzo[b]thiophen-2-yl)-N-(2-cyclopropylethyl)-benzenesulfonamide], for which the IC50 under setting [1] turned out to be 7.8 nM. The inhibition at 0.2 µM under setting [2] turned out to be 101%.

For `CC(=O)c1c(N(Cc2ccc(F)cc2)S(=O)(=O)c2ccc(Br)cc2)sc2ccccc12` [Compound 730, N-(3-Acetyl-benzo[b]thiophen-2-yl)-4-bromo-N-(4-fluoro-benzyl)benzene-sulfonamide], the half-maximal inhibitory concentration (IC50) under setting [1] was 23.6 nM. In addition, the inhibition at 0.2 µM under setting [2] came to 100%.

For the compound `CCCCN(C1=C(Br)c2ccccc2S1(=O)=O)S(=O)(=O)c1ccc(C(=O)O)cc1` [Compound 435, N-(Butyl)-N-(3-bromo-1,1-dioxo-1H-benzo[b]thiophen-2-yl)-4-carboxy-benzenesulfonamide], the IC50 under setting [1] amounted to 33 nM. Moreover, the inhibition at 0.2 µM under setting [2] was 95%.

On to `O=S1NC(c2ccc(S(=O)(=O)N(CCC(F)(F)F)c3cc4ccccc4s3)cc2)=NO1` (stereo not shown) [Compound 596, N-(Benzo[b]thiophen-2-yl)-N-(3,3,3-trifluoro-propyl)-4-(3H-[1,2,3,5]oxathiadiazole-2-oxide)-benzenesulfonamide], for which the “% Inh @ 0.2 (μM)” value (compound at 0.2 μM, canine TRPM8, icilin activation) was determined as 17%.

As to `Cc1c(N(Cc2ccc(OC(F)(F)F)cc2)S(=O)(=O)CCC(=O)O)sc2ccccc12` [Compound 795, N-(3-Methyl-benzo[b]thiophen-2-yl)-N-(4-trifluoromethoxy-benzyl)-2-carboxy-ethanesulfonamide], the inhibition at 0.2 µM under setting [4] turned out to be 100%. Also, the IC50 under setting [5] worked out at 24.6 nM.

For the compound `O=C(O)c1ccc(S(=O)(=O)N(CCCCC(F)(F)F)c2sc3ccccc3c2Br)c(F)c1` [Compound 707, N-(3-Bromo-benzo[b]thiophen-2-yl)-N-(5,5,5-trifluoro-pentyl)-2-fluoro-4-carboxy-benzenesulfonamide], the IC50 under setting [1] was 3 nM. For the same compound, the inhibition at 0.2 µM under setting [2] amounted to 102%.

As for `COC(=O)CCS(=O)(=O)N(Cc1ccc(F)c(C(F)(F)F)c1)c1sc2ccccc2c1C` [Compound 71], the IC50 worked out at 18 nM. Besides, the inhibition at 0.2 µM (read-out: % Inh @ 0.2 (μM)) is 98%.

`Cc1c(N(Cc2ccc(OC(F)(F)F)cc2)S(=O)(=O)c2ccsc2)sc2ccccc12` [Compound 16, N-(3-Methyl-benzo[b]thiophen-2-yl)-N-(4-trifluoromethoxy-benzyl)-thiophene-3-sulfonamide]: the IC50 under setting [1] came out at 6 nM. The inhibition at 0.5 µM under setting [3] was determined as 99%.

On to `Cc1c(N(Cc2ccc(F)c(F)c2)S(=O)(=O)c2cccc3cnccc23)sc2ccccc12` [Compound 27, N-(3,4-Difluoro-benzyl)-N-(3-methyl-benzo[b]thiophen-2-yl)-isoquinoline-5-sulfonamide], for which the IC50 under setting [1] stood at 20 nM. The inhibition at 0.5 µM under setting [3] was determined as 99%.

On to `COC(=O)c1ccc(S(=O)(=O)N(Cc2ccc(F)c(C(F)(F)F)c2)c2sc3ccccc3c2Cl)cc1` [Compound 194, N-(3-Chloro-benzo[b]thiophen-2-yl)-N-(4-fluoro-3-trifluoromethyl-benzyl)-4-carbomethoxy-benzenesulfonamide], for which, under setting [2], the inhibition at 0.2 µM is 45%.

Consider `CCCCN(c1sc2ccccc2c1C(C)O)S(=O)(=O)CC` (stereo not shown) [Compound 280, N-(Butyl)-N-[3-(1-hydroxy-ethyl)-benzo[b]thiophen-2-yl]-ethanesulfonamide], for which the inhibition at 0.2 µM under setting [2] was found to be 87%.

Turning to `Cc1c(N(Cc2ccc(F)c(C(F)(F)F)c2)S(=O)(=O)c2cccc(-c3nnn[nH]3)c2)sc2ccccc12` [Compound 455, N-(3-Methyl-benzo[b]thiophen-2-yl)-N-(4-fluoro-3-trifluoromethyl-benzyl)-3-(1H-tetrazol-5-yl)-benzenesulfonamide], the IC50 under setting [1] amounted to 36 nM. In addition, under setting [2], the inhibition at 0.2 µM turned out to be 101%.

Consider `Cc1c(N(CCC2CC2)S(=O)(=O)c2nc3ccccc3[nH]2)sc2ccccc12` [Compound 726, N-(Cyclopropyl-ethyl)-N-(3-methyl-benzo[b]thiophen-2-yl)-1H-benzimidazole-2-sulfonamide], for which the IC50 under setting [1] stood at 90.3 nM. Besides, under setting [2], the inhibition at 0.2 µM was 69%.

`Cc1ccccc1CN(c1sc2ccccc2c1Br)S(=O)(=O)c1ccccc1` [Compound 178, N-(3-Bromo-benzo[b]thiophen-2-yl)-N-(2-methyl-benzyl)-benzenesulfonamide]: under setting [1], the IC50 amounted to 35.5 nM. For the same compound, the inhibition at 0.5 µM under setting [3] was determined as 96%.

Regarding `CC(=O)c1ccc(S(=O)(=O)N(Cc2ccc(F)c(C(F)(F)F)c2)c2sc3ccccc3c2C)cc1` [Compound 352, N-(3-Methyl-benzo[b]thiophen-2-yl)-N-(4-fluoro-3-trifluoromethyl-benzyl)-4-acetyl-benzenesulfonamide], the IC50 under setting [1] was 8.6 nM. The inhibition at 0.2 µM under setting [2] was 96%.

As for `Nc1ccc(S(=O)(=O)N(CCCCC(F)(F)F)c2sc3ccccc3c2Br)cc1` [Compound 668, 4-Amino-N-(3-bromo-benzo[b]thiophen-2-yl)-N-(5,5,5-trifluoro-pentyl)-benzenesulfonamide], under setting [1], the IC50 amounted to 5 nM. For the same compound, the inhibition at 0.2 µM under setting [2] turned out to be 103%.

For `CS(=O)(=O)Nc1ccc(S(=O)(=O)N(CCC(F)(F)F)c2sc3ccccc3c2Br)cc1Br` [Compound 683, 3-Bromo-N-(3-bromo-benzo[b]thiophen-2-yl)-4-methanesulfonylamino-N-(3,3,3-trifluoro-propyl)-benzenesulfonamide], under setting [1], the IC50 came out at 25.8 nM. In addition, the inhibition at 0.2 µM under setting [2] is 101%.

In the case of `Cc1c(N(Cc2ccc(F)c(C(F)(F)F)c2)S(=O)(=O)c2cccc(C(=O)O)c2)sc2cc(F)ccc12` [Compound 376, N-(6-Fluoro-3-methyl-benzo[b]thiophen-2-yl)-N-(4-fluoro-3-trifluoromethyl-benzyl)-3-carboxy-benzenesulfonamide], the IC50 under setting [1] amounted to 26 nM. The inhibition at 0.2 µM under setting [2] was found to be 85%.

Regarding `COc1cccc2c(Cl)c(N(Cc3ccc(F)c(F)c3)S(=O)(=O)c3ccccc3)sc12` [Compound 143, N-(3-Chloro-7-methoxy-benzo[b]thiophen-2-yl)-N-(3,4-difluoro-benzyl)-benzenesulfonamide], the inhibition at 0.5 µM under setting [3] turned out to be 48%.

`CCCCN(c1cc2ccccc2s1)S(=O)(=O)c1ccc(N2CCCC2)cc1` [Compound 445, N-(Benzo[b]thiophen-2-yl)-N-(butyl)-4-pyrrolidin-1-yl-benzenesulfonamide]: the inhibition at 0.2 µM under setting [2] was determined as 58%.

In the case of `CC1=C(N(CCCCC(F)(F)F)S(=O)(=O)c2ccccc2)S(=O)(=O)c2ccccc21` [Compound 621, N-(3-Methyl-1,1-dioxo-benzo[b]thiophen-2-yl)-N-(5,5,5-trifluoro-pentyl)-benzenesulfonamide], the IC50 under setting [1] was 11 nM. Besides, the inhibition at 0.2 µM under setting [2] came out at 101%.

With `CCS(=O)(=O)N(Cc1ccnc(F)c1)c1sc2ccccc2c1C(C)O` (stereo not shown) [Compound 835, N-(2-Fluoropyridin-4-ylmethyl)-N-[3-(1-hydroxyethyl)-benzo[b]thiophen-2-yl]-ethanesulfonamide], the inhibition at 0.2 µM under setting [4] was determined as 89%. The IC50 under setting [5] was 55.1 nM.

With `O=S(=O)(c1ccccc1)N(Cc1cccc(O)c1)c1cc2ccccc2s1` [Compound 287, N-(Benzo[b]thiophen-2-yl)-N-(3-hydroxy-benzyl)-benzenesulfonamide], under setting [1], the 50% inhibitory concentration (IC50) was found to be 29.8 nM. The inhibition at 0.5 µM under setting [3] came to 96%.

Regarding `Cc1c(N(CCC2CC2)S(=O)(=O)c2ccc(N3CCCCC3)cc2)sc2ccccc12` [Compound 751, N-(3-Methyl-benzo[b]thiophen-2-yl)-N-(cyclopropyl-ethyl)-4-piperidin-1-yl-benzenesulfonamide], the inhibition at 0.2 µM under setting [2] is 54%.

`O=S(=O)(c1ccccc1)N(Cc1ccc(F)c(F)c1)c1sc2ccccc2c1Cl` [Compound 24, N-(3-Chloro-benzo[b]thiophen-2-yl)-N-(3,4-difluoro-benzyl)-benzenesulfonamide]: under setting [1], the IC50 turned out to be 8.8 nM. Further, the inhibition at 0.5 µM under setting [3] amounted to 100%.

Regarding `CCCCN(c1sc2ccccc2c1C(C)=O)S(=O)(=O)c1ccc(C(=O)O)cc1` [Compound 342, N-(3-Acetyl-benzo[b]thiophen-2-yl)-N-(butyl)-4-carboxy-benzenesulfonamide], the IC50 under setting [1] was 13 nM. Also, under setting [2], the inhibition at 0.2 µM was determined as 100%.

Turning to `O=S(=O)(c1ccc(-c2nnn[nH]2)cc1)N(CCC(F)(F)F)c1sc2ccccc2c1Br` [Compound 595, N-(3-Bromo-benzo[b]thiophen-2-yl)-N-(3,3,3-trifluoro-propyl)-4-(1H-tetrazol-5-yl)-benzenesulfonamide], the inhibition at 0.2 µM under setting [2] was found to be 101%.

In the case of `Cc1c(N(Cc2ccc(C(F)(F)F)cc2)S(=O)(=O)c2ccc(C(=O)O)cc2)sc2ccccc12` [Compound 518, N-(3-Methyl-benzo[b]thiophen-2-yl)-N-(4-trifluoromethyl-benzyl)-4-carboxy-benzenesulfonamide], under setting [1], the 50% inhibitory concentration (IC50) was 0.7 nM. For the same compound, the inhibition at 0.2 µM under setting [2] stood at 101%.

`Cc1c(N(Cc2ccc(OC(F)(F)F)cc2)S(=O)(=O)c2ccc3ncccc3c2)sc2ccccc12` [Compound 31, N-(3-Methyl-benzo[b]thiophen-2-yl)-N-(4-trifluoromethoxy-benzyl)-quinoline-6-sulfonamide]: the half-maximal inhibitory concentration (IC50) under setting [1] was found to be 22 nM. For the same compound, the inhibition at 0.5 µM under setting [3] was 100%.
